Experimental data from patent publication US6338963B1, “Use of carbon monoxide dependent guanylyl cyclase modifiers to stimulate neuritogenesis” (NeoTherapeutics, Inc., priority 1994, dated 2002).

Columns and labels:
Type in all cases: cell-based, rat
TGFβ2 = assay: Western blot of astrocyte cytosolic proteins: TGFβ2
Description: Western blot analysis of cytosolic proteins from cultured astrocytes was performed to detect the factors NGF and TGFβ2. The results are shown in FIG. 58A for NGF at 6 and 12 hours and in FIG. 58B for TGFβ2 at 6 and 12 hours.
Western blot analysis of cytosolic proteins deriving from cultured astrocytes treated for 6 or 12 hours with 100 μM AIT-082 was performed. AIT-082 is able to promote the production of neurotrophic factors from rat cultured astrocytes as measured by Western blot analysis. The results are shown in FIG. 62A for NGF and in FIG. 62B for TGFβ2. Electrophoresis was performed in 12% (for NBF) or 15% (for TGFβ2) SDS-PAGE (20 μg of total protein per lane). The separated proteins were transferred onto a PVDF membrane (Bio-Rad Laboratories, Italy).

[1] = test system: MAP kinases ERK1 (44 kDa) and ERK2 (42 kDa); assay: Western blot of phospho-ERK1/2 in cultured astrocytes; settings: for activation (phosphorylation) of MAP kinases ERK1 and ERK2: astrocyte cytosolic proteins
Description: In FIG. 60, the activation of MAP kinases ERK1 (44 kDa) and ERK2 (42 kDa) by guanosine is shown. Cultured astrocytes were harvested at 4° C. in lysis buffer specific for MAP kinase: 25 mM Tris buffer, pH 7.4, containing 150 mM NaCl, 100 μM sodium orthovanadate, 1.5 mM MgCl2, 1.0 mM EDTA, 1% NP40, 10% glycerol, 1 mM PMSF, 5 μg/ml leupeptin, and 10 μg/ml aprotinin and sonicated and centrifuged at 14,000 rpm for 5 min. Aliquots of the supernatants were processed for the assessment of protein concentration (M. M. Bradford, “A Rapid and Sensitive Method for the Quantitation of Microgram Quantities of Protein Using the Principle of Protein-Dye Binding,” Anal. Biochem. 72: 248-254 (1976)). Electrophoresis was performed in 12% SDS-PAGE, using 20 μg of total protein per lane and separated proteins were then transferred onto a PVDF membrane (Bio-Rad Laboratories, Italy). Membranes were first incubated with polyclonal primary antibody (rabbit phospho-ERK1/2 antibody, New England Biolabs, Germany; final dilution 1:1000) for 1 hour and then with donkey anti-rabbit HPR-conjugated secondary antibody (Amersham, Italy; final dilution 1:5000) for another 1 hour, both at room temperature. Immunocomplexes were visualized using the enhancing chemiluminescence detection system (ECL) (Amersham, Italy).
This activation was no longer evident after 10 minutes or 20 minutes of stimulation. […] This effect is likely independent of the activity of growth factors, such as NGF, that also act through this molecular pathway. Cultured astrocytes were harvested at 4° C. in lysis buffer specific for MAP kinase: 25 mM Tris buffer, pH 7.4, containing 150 mM NaCl, 100 μM sodium orthovanadate, 1.5 mM MgCl2, 1.0 mM EDTA, 1% NP40, 10% glycerol, 1 mM PMSF, 5 μg/ml leupeptin, and 10 μg/ml aprotirin and sonicated and centrifuged at 14,000 prm for 5 min. Aliquots of the supernatants were processed for the assessment of protein concentration (Bradford, 1976). […]

[2] = test system: cGMP levels in PC12 cells; assay: cGMP levels in PC12 cells (radioimmunoassay); settings: NGF-primed PC12 cells
Description: Initially, PC-12 cells were primed with 40 ng/ml NGF for 3 days in low serum medium (1.5% horse serum+5% fetal calf serum). Cells were seeded onto assay plates in low serum medium containing 40 ng/ml NGF and incubated for 1 hour. The medium was changed to low arginine medium (80 μM) with no serum and NGF and papaverine ([…]) where indicated. Test compounds were added for the indicated time and the reaction was stopped by adding 5% TCA containing 10,000 dpm of ^3H-cGMP. cGMP was assayed by the radioimmunoassay method of Maurice (Mol. Pharmacol. 37: 671-681, 1990). TCA was purified by adding powdered charcoal (5 g) and filtering the mixture through Whatman #1 paper. This removed contaminants in the TCA that otherwise interfere with the radioimmunoassay (RIA) of cGMP.
It was necessary to purify the cGMP from cAMP and other contaminants before radioimmunoassay since these other materials can interfere with the assay. Briefly, the TCA solution was applied to Dowex columns (50W-8X, 200-400 mesh) and eluted. A neutral alumina column was then placed under each Dowex column. The cGMP was eluted from the Dowex columns into neutral alumina columns by adding 4 mL of 0.05 M HCl to each Dowex column. The neutral alumina columns were then sequentially rinsed with 2 ml of HCl, 4 mL water and finally with 0.2 M sodium acetate (pH 6.2). The cGMP collected for the RIA eluted in 1 ML of sodium acetate with a recovery between 50-65%. The cGMP was assayed using a Dupont RIA kit.

SMILES	intracellular levels of TGFβ2 (TGFβ2; 100 μM AIT-082, 6 or 12 hours)	time of maximal activation of the enzyme cascade ([1]; AIT-082 100 μM, no longer evident after 10 or 20 minutes) [min]	activation (phosphorylation) of MAP kinases ERK1 and ERK2 [1]	cGMP in PC12 cells [2]	intracellular content of TGFβ2 (TGFβ2; guanosine, 6 and 12 hours)
O=C(CCn1cnc2c(=O)[nH]cnc21)Nc1ccc(C(=O)O)cc1 [AIT-082, N-4-carboxyphenyl-3-(6-oxohydropurin-9-yl)propanamide]	increased in time-dependent manner	5	stimulated the phosphorylation of MAP kinases ERK1 (44 kDa) and ERK2 (42 kDa)	increased the production of cGMP	–
Nc1nc2c(ncn2[C@@H]2O[C@H](CO)[C@@H](O)[C@H]2O)c(=O)[nH]1 [guanosine]	–	–	activation	increased intracellular cGMP	increased the intracellular content of NGF and TGFβ2 in time-dependent fashion
